Data: patent US20250195504A1, “NALTREXAMINE DERIVATIVES BEARING 5-MEMBER HETEROCYCLIC RING SYSTEMS AND OPIOID RECEPTOR MODULATORS” (VIRGINIA COMMONWEALTH UNIVERSITY, priority 2022, published 2025)
Where a name gives a salt, the structure may show the parent alone. Read-outs that look alike come from different tables or passages of the source.

Experiments:
[1] = test system: self-administration rat model; assay: Self-administration Studies, Food vs Drug (heroin choice); type: in vivo
[2] = Protein Binding (plasma), rat
KOR = KOR (Mus musculus, UniProt P33534); assay: KOR [35S]GTPγS binding assay; type: biochemical; parameters: expressed in transfected cells; host or cells: CHO; conditions: for Emax: read-out: 35S-GTP[γS]-Binding KOR Efficacy (% max of U50, 488H)
KOR, sequence (P33534 whole entry): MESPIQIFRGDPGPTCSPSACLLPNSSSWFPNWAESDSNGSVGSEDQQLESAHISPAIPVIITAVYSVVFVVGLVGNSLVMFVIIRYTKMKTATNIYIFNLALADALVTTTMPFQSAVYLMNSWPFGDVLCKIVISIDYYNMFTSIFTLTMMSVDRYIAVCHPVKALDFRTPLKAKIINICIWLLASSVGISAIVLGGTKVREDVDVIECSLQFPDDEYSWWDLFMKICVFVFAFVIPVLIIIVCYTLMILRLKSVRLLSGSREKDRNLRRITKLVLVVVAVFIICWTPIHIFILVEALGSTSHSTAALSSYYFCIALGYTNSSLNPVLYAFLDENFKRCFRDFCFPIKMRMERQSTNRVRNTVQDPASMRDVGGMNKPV
Method: The [^35S]GTPγS functional assay was conducted to determine the efficacy of the compounds at the MOR, KOR and DOR. […] The Bradford protein assay was utilized to determine and adjust the concentration of protein required for the assay. Nonspecific binding was determined with 20 μM unlabeled GTPγS. Furthermore, 3 μM DAMGO/U50488H/SNC80 was included in the assay as the maximally effective concentration of a full agonist for the MOR/KOR/DOR. After incubation, the bound radioactive ligand was separated from the free radioligand by filtration through a GF/B glass fiber filter paper using a Brandel harvester. Bound radioactivity was determined by liquid scintillation counting. All assays were determined in duplicate and repeated at least three times. Net stimulated [^35S]GTPγS binding was defined as agonist-stimulated minus basal binding in the absence of agonist. Percent of DAMGO/U50488H/SNC80 stimulated [^35S]GTPγS binding was defined as (net-stimulated binding by ligand/net-stimulated binding by 3 μM DAMGO U50488H/SNC80)×100%.

[3] = Self-administration Studies, Abuse liability; conditions: in vivo
morphine-pelleted mice = assay: opioid withdrawal study in morphine-pelleted mice; conditions: for Withdrawal study: wet-dog shakes, escape jumps, paw tremors: 1 mg/kg dose, compared to 1 mg/kg naloxone; for withdrawal symptoms (wet-dog shakes, escape jumps, paw tremors): 1 mg/kg s.c., compared to 1 mg/kg NLX; for withdrawal symptoms at higher doses: 5 mg/kg and above, s.c.
CYP2C19 = CYP2C19 (Homo sapiens, UniProt P33261); assay: CYP450 enzyme testing, CYP2C19
CYP2C19, sequence (P33261 whole entry): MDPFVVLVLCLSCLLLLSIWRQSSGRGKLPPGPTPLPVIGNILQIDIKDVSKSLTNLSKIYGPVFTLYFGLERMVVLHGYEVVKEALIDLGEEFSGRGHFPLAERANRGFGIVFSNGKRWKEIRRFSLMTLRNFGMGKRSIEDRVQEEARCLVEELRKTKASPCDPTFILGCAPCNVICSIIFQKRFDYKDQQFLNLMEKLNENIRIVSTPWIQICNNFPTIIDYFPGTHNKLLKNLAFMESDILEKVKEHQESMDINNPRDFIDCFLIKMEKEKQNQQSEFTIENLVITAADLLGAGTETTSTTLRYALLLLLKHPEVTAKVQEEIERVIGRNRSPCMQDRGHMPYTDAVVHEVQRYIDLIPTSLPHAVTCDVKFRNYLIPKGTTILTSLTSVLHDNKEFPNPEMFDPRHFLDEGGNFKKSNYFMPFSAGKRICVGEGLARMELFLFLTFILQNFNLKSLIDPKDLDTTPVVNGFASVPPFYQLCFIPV

male Swiss Webster mice = assay: warm-water tail immersion assay, antagonism of morphine's antinociception; type: in vivo, mouse; conditions: for Tail flick assay (dose response) AD50: 95% CL
Method: Following this single dose assessment, in vivo dose-response studies with eight identified antagonists were conducted.
Antinociceptive effect of synthesized compounds was determined using the warm-water tail immersion assay. Swiss Webster mice (six male mice for each group, 25-35 g, 6-8 weeks old) were used in this assay. Antinociception for all compounds was examined in male Swiss Webster mice. […] To prevent tissue damage, a 10 s maximum cutoff time was imposed. Antinociceptive response was calculated as the percentage of maximum possible effect (% MPE), where % MPE=[(test−control latency)/(10−control latency)]×100.
Warm-water tail immersion assay is a well-established assay for evaluating opioid analgesics, especially MOR agonists. […] In this context, all 24 compounds were first evaluated for their acute antinociception tail-withdrawal assay (FIG. 5A).
The tail-withdrawal test was performed using a water bath with the temperature maintained at 56±0.1° C. Baseline latency was measured before any injections. Each mouse was gently wrapped in a cloth with only the tail exposed. The distal one-third of the tail was immersed perpendicularly in water, and the mouse rapidly flicked the tail from the bath was seen as the first sign of discomfort. The duration of time the tail remained in the water bath was counted as the baseline latency. Untreated mice with baseline latency reaction times ranging from 2 to 4 seconds were used. Test latency was obtained 20 min later after each injection. A 10-second maximum cutoff latency was used to prevent any tissue damage. Antinociception was quantified as the percentage of maximal possible effect (% MPE), which was calculated as % MPE=[(test latency−control latency)/(10−control latency)]×100. The % MPE value was calculated for each mouse using 6 mice per group. Testing compounds were given 10 mg/kg (s.c.) to each mouse.

hM1 = target: T1, hM1 (Homo sapiens, UniProt P11229); assay: side effect profiling, hM1; type: binding; conditions: for hM1 binding: at 10 uM
T1 sequence (P11229 1-460): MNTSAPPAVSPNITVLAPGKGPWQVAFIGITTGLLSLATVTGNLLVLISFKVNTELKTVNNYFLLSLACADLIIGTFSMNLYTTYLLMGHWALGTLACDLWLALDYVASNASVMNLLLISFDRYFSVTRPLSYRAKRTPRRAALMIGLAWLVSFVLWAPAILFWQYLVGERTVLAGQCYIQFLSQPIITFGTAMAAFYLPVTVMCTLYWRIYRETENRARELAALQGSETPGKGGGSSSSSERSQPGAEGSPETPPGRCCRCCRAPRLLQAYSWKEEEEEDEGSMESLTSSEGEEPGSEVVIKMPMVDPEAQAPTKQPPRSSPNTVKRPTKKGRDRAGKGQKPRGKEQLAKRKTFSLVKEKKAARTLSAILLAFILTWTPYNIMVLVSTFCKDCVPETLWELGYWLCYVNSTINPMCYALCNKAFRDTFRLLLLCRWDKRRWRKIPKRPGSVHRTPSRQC

| Structure (SMILES) | Self-administration Studies Food vs Drug [1] | fraction unbound [2] | Emax (KOR) | Self-administration Studies Abuse liability [3] | Withdrawal study: wet-dog shakes, escape jumps, paw tremors (morphine-pelleted mice) | CYP2C19 inhibition (in words) (CYP2C19; human) | Tail flick assay (dose response) AD50 (male Swiss Webster mice; mice) | Ki (hM1) | hM1 binding (hM1) | withdrawal symptoms (wet-dog shakes, escape jumps, paw tremors) (morphine-pelleted mice) | withdrawal symptoms at higher doses (morphine-pelleted mice) | Withdrawal study: wet-dog shakes, escape jumps, paw tremors at high dose (morphine-pelleted mice; high dose (5 to 20 mg/kg), compared to naloxone at 1 mg/kg, listed as NAT, hydrochloride) | CYP2C19 inhibition (CYP2C19) | AMES testing (AMES testing) | CYP2C19 inhibition (in words) (CYP2C19) | antagonism of morphine's antinociceptive effect (in words) (male Swiss Webster mice; Example 1 compounds, 10 mg/kg s.c. in the presence of morphine (10 mg/kg)) | AD50 mg/kg (95% CL) to antagonize morphine mediated antinociception (male Swiss Webster mice; Example 1 compounds, s.c., mice, morphine 10 mg/kg) | EC50 (KOR; Tables A, B, read-out: 35S-GTP[γS]-Binding KOR Potency EC50) | Withdrawal study: precipitation of withdrawal syndromes (morphine-pelleted mice; up to 0.1 mg/kg) | Tail flick assay, antagonism of morphine's antinociceptive effect (in words) (male Swiss Webster mice; mice, single dose 10 mg/kg) |
| --- | --- | --- | --- | --- | --- | --- | --- | --- | --- | --- | --- | --- | --- | --- | --- | --- | --- | --- | --- | --- |
| O=C(N[C@H]1CCC2(O)C3Cc4ccc(O)c5c4[C@@]2(CCN3CC2CC2)[C@H]1O5)c1ccc[nH]1 (stereo partly drawn) [Example 1 compound 1, 17-Cyclopropylmethyl-3,14β-dihydroxy-4,5α-epoxy-6a-[(2′-pyrrolyl)carboxamido]morphinan hydrochloride] | reduce heroin choice and increase food choice | 0.43 | 43.4 ± 1.36% | No significant abuse liability | At 1 mg/kg dose of NAY produced NO wet-dog | Only moderate at CYP2D6 and CYP2C19 | The AD50 of NAY was determined as 4.71 (1.61- mg/kg | – | – | – | – | – | – | – | – | – | – | – | – | – |
| O=C(N[C@H]1CC[C@@]2(O)[C@H]3Cc4ccc(O)c5c4[C@@]2(CCN3CC2CC2)[C@H]1O5)c1cccs1 [Example 1 compound 25, 17-Cyclopropylmethyl-3,14β-dihydroxy-4,5α-epoxy-6α-(2′-thienylcarboxamido)morphinan hydrochloride] | – | 0.36 | 50.6 ± 0.95% | – | – | – | – | 8.4 µM | 53% | significantly fewer wet-dog shakes, escape jumps, and paw tremors | started showing wet dog shakes and jumps at a 5 mg/kg dose | lower compared to naloxone at 1 mg/kg. | Only CYP2C19 inhibition (~3 uM) | No toxicity shown | – | – | – | – | – | – |
| O=C(N[C@H]1CC[C@@]2(O)[C@H]3Cc4ccc(O)c5c4[C@@]2(CCN3CC2CC2)[C@H]1O5)c1ccsc1 [Example 1 compound 31, 17-Cyclopropylmethyl-3,14β-dihydroxy-4,5α-epoxy-6α-(3′-thienylcarboxamido)morphinan hydrochloride] | reduce heroin choice and increase food choice in a | 0.44 | – | No significant abuse liability | produced significantly fewer wet-dog shakes, | – | – | – | hM1 (62% at 10 uM) | significantly fewer wet-dog shakes, escape jumps, and paw tremors | started showing wet dog shakes and jumps at a 5 mg/kg dose | – | – | No toxicity shown | Only moderate at CYP2D6 and CYP2C19 | significantly antagonized morphine's antinociceptive effect | 1.51 mg/kg | – | – | – |
| O=C(N[C@H]1CC[C@@]2(O)[C@H]3Cc4ccc(O)c5c4[C@@]2(CCN3CC2CC2)[C@H]1O5)c1nccs1 [NTZ, 17-Cyclopropylmethyl-3,14β-dihydroxy-4,5α-epoxy-6α-(2′-thiazolylcarboxamido)morphinan hydrochloride] | reduce heroin choice and increase food choice in a | 0.4 | 23.5 ± 2.03% | No significant abuse liability | fewer symptoms than naloxone at the same dose. | – | The AD50 of VZMN283 was determined as 0.043 mg/kg | – | hM1 (53% at 10 uM) | – | – | – | – | No toxicity shown | – | – | – | 0.00383 ± 0.00062 µM | No significant precipitation of withdrawal syndromes | significantly antagonized morphine's antinociceptive |
